Measured values reported in patent publication US20260184663A1, “INDENE COMPOUNDS, PHARMACEUTICAL COMPOSITIONS THEREOF, AND THEIR THERAPEUTIC APPLICATIONS” (NucMito Pharmaceuticals co. Ltd., priority 2022, published 2026).

What was measured:
Type in all cases: cell-based
[1] = system: MDA-MB-231 (breast cancer); assay: Antiproliferative activity (CCK-8 cell viability), MDA-MB-231; details: Homo sapiens, 72 h; for inhibition at 3.3 µM: Compound concentration: 3.3 μM; for inhibition at 3.3 µM / inhibition at 10 µM: read-out: Antiproliferative activity in cancerous cells, MDA-MB-231 (inhibition of cell growth); for inhibition at 10 µM: Compound concentration: 10 μM
Experimental: (§1) The antiproliferative activity of a compound was determined in the following cell lines: MDA-MB-231 (breast cancer), HepG2 (liver cancer), SW480 (colon cancer), B16F10 (malignant melanoma), A431 (epidermoid carcinoma), A549 (lung adenocarcinoma), and HeLa (cervical cancer). MDA-MB-231, HepG2, SW480, B16F10, and A431 cells were cultured in Dulbecco's modified Eagle's medium (DMEM) containing 10% fetal bovine serum (FBS). HeLa cells were cultured in MEM/EBSS (MEM) containing 10% FBS. A549 cells were maintained in Kaighn's modification of Ham's F-12 medium containing 10% FBS. A Cell Counting Kit-8 (CCK-8) was used to measure the cell viability of different cells following treatment with the compound.
(§2) Briefly cells were seeded in a 96-well plate at a density of 2,000-5,000 cells/well. Following attachment, the cells were treated with the compound in media at a compound concentration of 3.3 μM, 10 μM, or 30 μM. After the cells were incubated at 37° C. for 72 h, a CCK-8 solution (10 μL) was added to each well. After incubation at 37° C. for 4 h, the absorbance value of each well was determined using a multi-well plate reader at 450 nm. The wells treated with DMSO were taken as a vehicle control. Data were also obtained similarly for all the replicates and the percentage of cell viability was determined with respect to the DMSO-treated cells. The results are summarized in Tables 2-4, wherein A represents no less than […] of cell growth; B represents no less than 30% but less than 50% inhibition of cell growth; and C represents less than 30% inhibition of cell growth.

[2] = system: HepG2 (liver cancer); assay: Antiproliferative activity (CCK-8 cell viability), HepG2; details: Homo sapiens, 72 h; for inhibition at 3.3 µM: Compound concentration: 3.3 μM; for inhibition at 3.3 µM / inhibition at 10 µM: read-out: Antiproliferative activity in cancerous cells, HepG2 (inhibition of cell growth); for inhibition at 10 µM: Compound concentration: 10 μM
Experimental: as §1, §2

[3] = system: HeLa (cervical cancer); assay: Antiproliferative activity (CCK-8 cell viability), HeLa; details: Homo sapiens, 72 h, read-out: Antiproliferative activity in cancerous cells, HELA (inhibition of cell growth); for inhibition at 3.3 µM: Compound concentration: 3.3 μM; for inhibition at 10 µM: Compound concentration: 10 μM
Experimental: as §1, §2

[4] = system: A431 (epidermoid carcinoma); assay: Antiproliferative activity (CCK-8 cell viability), A431; details: Homo sapiens, 72 h; for inhibition at 3.3 µM: A-431, Compound concentration: 3.3 μM; for inhibition at 3.3 µM / inhibition at 10 µM: read-out: Antiproliferative activity in cancerous cells, A431 (inhibition of cell growth); for inhibition at 10 µM: A-431, Compound concentration: 10 μM; for inhibition at 30 µM: A-431, Compound concentration: 30 μM, read-out: Antiproliferative activity in cancerous cells, A431
Experimental: as §1, §2

[5] = system: A549 (lung adenocarcinoma); assay: Antiproliferative activity (CCK-8 cell viability), A549; details: Homo sapiens, 72 h; for inhibition at 3.3 µM: Compound concentration: 3.3 μM; for inhibition at 3.3 µM / inhibition at 10 µM: read-out: Antiproliferative activity in cancerous cells, A549 (inhibition of cell growth); for inhibition at 10 µM: Compound concentration: 10 μM; for inhibition at 30 µM: Compound concentration: 30 μM, read-out: Antiproliferative activity in cancerous cells, A549
Experimental: as §1, §2

[6] = system: SW480 (colon cancer); assay: Antiproliferative activity (CCK-8 cell viability), SW480; details: Homo sapiens, 72 h; for inhibition at 3.3 µM: Compound concentration: 3.3 μM; for inhibition at 3.3 µM / inhibition at 10 µM: read-out: Antiproliferative activity in cancerous cells, SW480 (inhibition of cell growth); for inhibition at 10 µM: Compound concentration: 10 μM; for inhibition at 30 µM: Compound concentration: 30 μM, read-out: Antiproliferative activity in cancerous cells, SW480
Experimental: as §1, §2

[7] = system: B16F10 (malignant melanoma); assay: Antiproliferative activity (CCK-8 cell viability), B16F10; details: Mus musculus, 72 h, read-out: Antiproliferative activity in cancerous cells, B16F10 (inhibition of cell growth); for inhibition at 3.3 µM: B16-F10, Compound concentration: 3.3 μM; for inhibition at 10 µM: B16-F10, Compound concentration: 10 μM
Experimental: as §1, §2

Row | SMILES | inhibition at 3.3 µM [1] [%] | inhibition at 10 µM [1] [%] | inhibition at 3.3 µM [2] [%] | inhibition at 10 µM [2] [%] | inhibition at 3.3 µM [3] [%] | inhibition at 10 µM [3] [%] | inhibition at 3.3 µM [4] [%] | inhibition at 10 µM [4] [%] | inhibition at 3.3 µM [5] [%] | inhibition at 10 µM [5] [%] | inhibition at 3.3 µM [6] [%] | inhibition at 10 µM [6] [%] | inhibition at 3.3 µM [7] [%] | inhibition at 10 µM [7] [%] | inhibition at 30 µM [4] [%] | inhibition at 30 µM [6] [%] | inhibition at 30 µM ([2]; Compound concentration: 30 μM, read-out: Antiproliferative activity in cancerous cells, HepG2) [%] | inhibition at 30 µM [5] [%] | inhibition at 30 µM ([1]; Compound concentration: 30 μM, read-out: Antiproliferative activity in cancerous cells, MDA-MB-231) [%]
1 | CC1=C(CC(=O)O)c2cc(F)ccc2/C1=C\c1cccc(CSc2ccc(F)cc2)c1 [B49, (Z)-2-(5-Fluoro-1-(3-(((4-fluorophenyl)thio)methyl)benzylidene)-2-methyl-1H-inden-3-yl)acetic acid] | ≥ 50 | ≥ 50 | < 30 | ≥ 50 | < 30 | ≥ 50 | < 30 | 30 to 50 | < 30 | 30 to 50 | < 30 | ≥ 50 | ≥ 50 | ≥ 50 | – | – | – | – | –
2 | CC1=C(CC(=O)O)c2cc(F)ccc2/C1=C\c1cccc(C[S+]([O-])c2ccc(F)cc2)c1 (centres unmarked) [B50, (Z)-2-(5-Fluoro-1-(3-(((4-fluorophenyl)sulfinyl)methyl)benzylidene)-2-methyl-1H-inden-3-yl)acetic acid] | 30 to 50 | ≥ 50 | < 30 | < 30 | < 30 | 30 to 50 | < 30 | < 30 | < 30 | < 30 | < 30 | 30 to 50 | ≥ 50 | ≥ 50 | 30 to 50 | – | – | – | –
3 | CC1=C(CC(=O)O)c2cc(F)ccc2/C1=C\c1cccc(CS(=O)(=O)c2ccc(F)cc2)c1 [B51, (Z)-2-(5-Fluoro-1-(3-(((4-fluorophenyl)sulfonyl)methyl)benzylidene)-2-methyl-1H-inden-3-yl)acetic acid] | 30 to 50 | ≥ 50 | < 30 | < 30 | 30 to 50 | ≥ 50 | 30 to 50 | 30 to 50 | < 30 | 30 to 50 | < 30 | 30 to 50 | < 30 | ≥ 50 | – | – | – | – | –
4 | CCc1ccc2c(c1)C(CC(=O)O)=C(C)/C2=C/c1ccc(COc2ccc(F)cc2)cc1 [B52, (Z)-2-(5-Ethyl-1-(4-((4-fluorophenoxy)methyl)benzylidene)-2-methyl-1H-inden-3-yl)acetic acid] | ≥ 50 | ≥ 50 | < 30 | ≥ 50 | 30 to 50 | ≥ 50 | 30 to 50 | ≥ 50 | 30 to 50 | ≥ 50 | 30 to 50 | ≥ 50 | ≥ 50 | ≥ 50 | – | – | – | – | –
5 | CC1=C(CC(=O)O)c2cc(F)c(F)cc2/C1=C\c1ccc(COc2ccc(F)cc2)cc1 [B53, (Z)-2-(5,6-Difluoro-1-(4-((4-fluorophenoxy)methyl)benzylidene)-2-methyl-1H-inden-3-yl)acetic acid] | ≥ 50 | ≥ 50 | < 30 | < 30 | < 30 | < 30 | 30 to 50 | 30 to 50 | < 30 | 30 to 50 | 30 to 50 | 30 to 50 | 30 to 50 | ≥ 50 | 30 to 50 | 30 to 50 | – | – | –
6 | COc1ccc2c(c1)C(CC(=O)O)=C(C)/C2=C/c1ccc(COc2ccc(F)cc2)cc1 [B54, (Z)-2-(1-(4-((4-Fluorophenoxy)methyl)benzylidene)-5-methoxy-2-methyl-1H-inden-3-yl)acetic acid] | 30 to 50 | ≥ 50 | < 30 | < 30 | ≥ 50 | ≥ 50 | 30 to 50 | 30 to 50 | < 30 | 30 to 50 | < 30 | < 30 | ≥ 50 | ≥ 50 | 30 to 50 | < 30 | 30 to 50 | 30 to 50 | –
7 | CCc1ccc2c(c1)C(CC(=O)O)=C(C)/C2=C/c1ccc(COc2ccc(F)c(F)c2)cc1 [B55, (Z)-2-(1-(4-((3,4-Difluorophenoxy)methyl)benzylidene)-5-ethyl-2-methyl-1H-inden-3-yl)acetic acid] | ≥ 50 | ≥ 50 | < 30 | ≥ 50 | < 30 | ≥ 50 | 30 to 50 | ≥ 50 | 30 to 50 | ≥ 50 | < 30 | ≥ 50 | ≥ 50 | ≥ 50 | – | – | – | – | –
8 | CCc1ccc2c(c1)C(CC(=O)O)=C(C)/C2=C/c1ccc(COc2ccc(Cl)cc2)cc1 [B56, (Z)-2-(1-(4-((4-Chlorophenoxy)methyl)benzylidene)-5-ethyl-2-methyl-1H-inden-3-yl)acetic acid] | < 30 | 30 to 50 | ≥ 50 | ≥ 50 | ≥ 50 | ≥ 50 | ≥ 50 | ≥ 50 | 30 to 50 | ≥ 50 | 30 to 50 | ≥ 50 | 30 to 50 | ≥ 50 | – | – | – | – | –
9 | CC1=C(CC(=O)O)c2cc(Cl)ccc2/C1=C\c1ccc(COc2ccc(F)cc2)cc1 [B57, (Z)-2-(5-Chloro-1-(4-((4-fluorophenoxy)methyl)benzylidene)-2-methyl-1H-inden-3-yl)acetic acid] | < 30 | < 30 | < 30 | 30 to 50 | < 30 | ≥ 50 | 30 to 50 | 30 to 50 | < 30 | < 30 | < 30 | < 30 | ≥ 50 | 30 to 50 | 30 to 50 | < 30 | – | < 30 | < 30
